Key:
[1] = target: T1, M. tuberculosis GyrA^A90V gyrase (Mycobacterium tuberculosis, UniProt P9WG47, A90V); assay type: biochemical
[2] = target: T1, M. tuberculosis GyrA^A90V gyrase; assay type: biochemical; remark: listed apart in the source

CC[C@H](C)n1cc(C)c2c(C(=O)NCc3c(C)cc(C)[nH]c3=O)cc(-c3ccc(N4CCNCC4)nc3)cc21 [GSK126]
potency in supercoiling inhibition compared to the wild-type enzyme [1]: potency dropped considerably | single-stranded DNA cleavage enhancement compared to wild-type [2]: induced substantially more single-stranded DNA cleavage

Reference: article PMC7450530 (Biochemistry, 2019)
